US7196105B2, “Treatment of human multiple myeloma by curcumin” (Research Development Foundation, priority 2002, dated 2007)
“Also recorded” adds a separate entry of the source.

Key:
IL-6 = IL-6 ELISA of culture supernatants; type: cell-based, human; settings: U266 cells, curcumin (legend b20: 10 mM)
Procedure: Sixty micrograms of cytoplasmic extracts were resolved on 10% SDS-PAGE gel, electrotransferred on a nitrocellulose membrane, and probed for the following: IκBα (FIG. 4A); Bcl-2 (FIG. 4B); Bcl-xL (FIG. 4C) and cyclin D1 (FIG. 4D). The same blots were stripped and reprobed with anti-β-actin antibody to show equal protein loading (lower panel in each figure). FIG. 4E: […] U266, MM.1 or RPMI 8226 cells (1×10^7) were treated with curcumin ([…]) in 5 ml of medium for the indicated times. Supernatants were harvested and concentrated approximately 20×, and IL-6 was quantitated by an IL-6 ELISA kit. Values shown were normalized to 1 ml of un-concentrated supernatants. […] One hundred microliter aliquots were removed, and IL-6 contents were determined by an ELISA kit (Biosource International).

MM.1 = assay: Growth of cells, viable cell count by trypan blue dye exclusion; type: cell-based; settings: Homo sapiens, Mm1; MM.1, curcumin 1 μM
Excerpt: (§1) The results are shown as the mean (±s. d.) cell count from triplicate cultures.

U266 = assay: as above; type: cell-based; settings: Homo sapiens, U-266; U266, curcumin 1 μM
Excerpt: as §1

RPMI 8226 = assay: as above; type: cell-based; settings: Homo sapiens; RPMI 8226, curcumin 1 μM
Excerpt: as §1

MM.1R = assay: as above; type: cell-based; settings: Homo sapiens, curcumin 1 μM
Excerpt: as §1

cyclin D1 = assay: Western blot for NF-κB-regulated gene product cyclin D1 in U266 cells; type: cell-based, human; settings: curcumin 50 μM
Procedure: Sixty micrograms of cytoplasmic extracts were resolved on 10% SDS-PAGE gel, electrotransferred on a nitrocellulose membrane, and probed for the following: IκBα (FIG. 4A); Bcl-2 (FIG. 4B); Bcl-xL (FIG. 4C) and cyclin D1 (FIG. 4D). The same blots were stripped and reprobed with anti-β-actin antibody to show equal protein loading (lower panel in each figure). FIG. 4E: […] U266, MM.1 or RPMI 8226 cells (1×10^7) were treated with curcumin ([…]) in 5 ml of medium for the indicated times. Supernatants were harvested and concentrated approximately 20×, and IL-6 was quantitated by an IL-6 ELISA kit. Values shown were normalized to 1 ml of un-concentrated supernatants. Thirty to fifty micrograms of cytoplasmic protein extracts prepared as described (Chaturvedi et al., 2000) were resolved on 10% SDS-PAGE gel. After electrophoresis, the proteins were electrotransferred to a nitrocellulose membrane, blocked with 5% nonfat milk, and probed with antibodies against either IkBa, phospho-IkBa, Bcl-2, Bcl-xL, or cyclin D1 (1:3000) for 1 h. Thereafter, the blot was washed, exposed to HRP-conjugated secondary antibodies for 1 h, and finally detected by chemiluminescence (ECL, Amersham Pharmacia Biotech., Arlington Heights, Ill.).

[1] = test system: CD138+ cells from multiple myeloma patients; assay: Viability of bone marrow CD138+ cells from multiple myeloma patients (MTT or trypan blue); type: cell-based, human; settings: 24 h
Procedure: (§2) Briefly, cells (5000/well) were incubated in triplicate in a 96-well plate in the presence or absence of indicated test samples in a final volume of 0.1 ml for 24 h at 37° C. Thereafter, 0.025 ml of MTT solution (5 mg/ml in PBS) was added to each well. After a 2 h incubation at 37 ° C., 0.1 ml of extraction buffer (20% SDS, 50% dimethylformamide) was added. Incubation was continued for overnight at 37 ° C., and then the OD at 590 nm was measured using a 96-well multiscanner autoreader (Dynatech MR 5000), with extraction buffer as blank. Percent cell viability=(OD of the experiment samples/OD of the control)×100.

caspase-9 = assay: Western blot for procaspase-9 (apoptosis); type: cell-based, human; settings: U266, curcumin 50 μM, time course
Procedure: (§3) The cells were washed and total proteins were extracted by lysing the cells. Sixty microgram of extracts were resolved on 10% SDS-PAGE gel, electrotransferred to a nitrocellulose membrane, and probed with anti-procaspase-9 (FIG. 6C), anti-procaspase-7 (FIG. 6D), anti-PARP (FIG. 6E, upper panel) and anti-cleaved PARP (FIG. 6E, lower penal). […] Lysates were then spun at 14000 rpm for 10 min to remove insoluble material, resolved on 7.5% gel and probed with PARP antibodies. PARP was cleaved from the 116-kDa intact protein into 85-kDa and 40-kDa peptide products. To detect cleavage products of procaspase 7 and procaspase 9, whole cell extracts were resolved on 10% gel and probed with appropriate antibodies.

NF-κB = assay: Immunocytochemistry for NF-κB in bone marrow CD138+ cells from multiple myeloma patients; type: cell-based, human; settings: patients #5, #9 and #10, 50 μM curcumin, 2 h
Procedure: The cells were fixed on slides by cytospin centrifugation and immuno-stained for NF-κB or STAT3. Red stain indicates specific staining for NF-κB or STAT3, whereas blue stain indicates the relative position of the nuclei in the corresponding view.
Red stain indicates the specific staining for NF-κB or STAT3 as indicated, whereas blue stain indicates the relative position of the nuclei in the corresponding view.
Untreated or treated multiple myeloma cells were plated on a poly-L-lysine-coated glass slide by centrifugation using a Cytospin 4 (Thermoshendon, Pittsburg, Pa.), air-dried for 1 h at room temperature, and fixed with cold acetone. After a brief washing in PBS, slides were blocked with 5% normal goat serum for 1 h and then incubated either with rabbit polyclonal anti-human NF-κB p65 antibody (SC-109; dilution, 1:100) or with anti-human STAT3 antibody (SC-482; dilution, 1:100). After overnight incubation, the slides were washed and then incubated with goat anti-rabbit IgG-Alexa 594 (A-11037; dilution, 1:100) for 1 h and counter-stained for nuclei with Hoechst (50 ng/ml) for 5 min. Stained slides were mounted with mounting medium (Sigma Colo.) and analyzed under an epifluorescence microscope (Labophot-2, Nikon, Tokyo, Japan). […]

U266 cells = assay: Cell viability by MTT method; type: cell-based, human; settings: U266, 24 h, different concentrations
Procedure: The results are shown as the mean (±s.d.) percent viability from triplicate cultures.
as §2

caspase-7 = assay: Western blot for procaspase-7 (apoptosis); type: cell-based, human; settings: U266, curcumin 50 μM, time course
Procedure: as §3

In the case of `COc1cc(/C=C/C(=O)CC(=O)/C=C/c2ccc(O)c(OC)c2)ccc1O` [curcumin, diferuloylmethane], the IL-6 production (IL-6) is reported as “inhibited the production of IL-6”, the inhibition at 1 µM (MM.1) is reported as 45% and the inhibition at 1 µM (U266) is reported as 27%. The inhibition at 1 µM (RPMI 8226) was 23%, the inhibition at 1 µM (MM.1R) was 51% and the “time to complete depletion of cyclin D1” value (cyclin D1) was no more than 4 h. For the same compound, the cell survival ([1]; patient #20, indicated concentrations, MTT) was “much more effective in inhibiting the survival of multiple myeloma cells than dexamethasone”, the cell survival ([1]; patients #7, #9 and #10, different concentrations) was “decreased cell survival in a dose-dependent manner” and the “activation of caspase-9 (disappearance of 47-kDa band)” value (caspase-9) was “time-dependent activation”. The “constitutive NF-κB activation (nuclear localization)” value (NF-κB) was “downregulated NF-κB”, the “cell viability / mitochondrial activity (MTT)” value (U266 cells) was “suppressed mitochondrial activity; also recorded: decreased cell survival in a dose-dependent manner” and the “activation of caspase-7 (disappearance of 35-kDa band)” value (caspase-7) was “time-dependent activation”.
